Data reported in patent US20260216157A1, “TETRAHYDROTHIOPHENE DERIVATIVE AND USE THEREOF IN MEDICINE” (Haisco Pharmaceutical Group Co., Ltd., priority 2023, published 2026).

Biological target: T1, hNav1.8 (Homo sapiens, UniProt Q9Y5Y9)
T1 construct: expressed in transfected cells; host or cells: CHO
Assay: Nav1.8 manual patch clamp test
Format: cell-based
Conditions: CHO cells stably expressing human Nav1.8; whole-cell patch clamp, half-inactivated state; read-out: Inhibitory activity (IC50) against hNav1.8
Method: Nav1.8 Manual Patch Clamp Test
CHO cell lines stably expressing human Nav1.8 were cultured in a Ham's F-12 medium containing 10% fetal bovine serum, 10 μg/mL Blasticidin, 200 μg/mL Hygromycin B and 100 μg/mL Zeocin. The cells were cultured at 37° C. with a carbon dioxide concentration of 5%. The old medium was removed, and the cells were rinsed once with PBS. Then, 1 mL of 0.25%-Trypsin-EDTA solution was added, and the cells were incubated at 37° C. for approximately 1.5 min. Once the cells detached from the bottom of the dish, complete medium pre-warmed to 37° C. was added. The cell suspension was gently triturated with a pipette to dissociate the clumped cells. The cell suspension was transferred to a sterile centrifuge tube and centrifuged at 1000 rpm for 5 min to collect the cells. The cells were seeded into 6 cm cell culture dishes at a density of 2.5×10^5 cells per cell culture dish (final volume: 5 mL) for expansion or maintenance culture. To maintain the electrophysiological activity of the cells, the cell density should not exceed 80%. Before patch clamp testing, the cells were dissociated with 0.25%-Trypsin-EDTA. 6.5×10^3 cells were plated onto coverslips and cultured in 24-well plates (final volume: […]) for 18 hours before detection.
The compound was dissolved in dimethyl sulfoxide (DMSO) and prepared into a 30 mM DMSO stock solution. The stock solution was diluted with the extracellular fluid (140 mM NaCl, 3.5 mM KCl, 1 mM MgCl2·6H2O, 2 mM CaCl2·2H2O, 10 mM D-Glucose, 10 mM HEPES and 1.25 mM NaH2PO4·2H2O; adjusted to pH 7.4 with NaOH) to the test concentration, and the final DMSO concentration of all test samples was 0.1%.
(3) Electrophysiological Test
First, the recording electrodes were pulled from capillary glass tubes by using a microelectrode puller. Then, the electrodes were filled with the intracellular fluid (50 mM CsCl, 10 mM NaCl, 10 mM HEPES, 60 mM CsF and 20 mM EGTA; adjusted to pH 7.2 with CsOH) and mounted onto the microelectrode holder. Under an inverted microscope, the microelectrode manipulator was used to immerse the electrodes into the extracellular fluid, and the pipette resistance (Rpip) was recorded. The electrodes were slowly brought into contact with the cell surface, and negative pressure suction was applied to form a […]. At this point, fast capacitance compensation was performed, and negative pressure was continuously applied to break the cell membrane, forming a whole-cell recording mode. Finally, slow capacitance compensation was performed, and experimental parameters such as series resistance (Rs) were recorded. No electric leakage compensation was applied. When the Nav1.8 current in whole-cell recording was stable, drug administration was initiated, with each drug concentration for approximately 5 min (or until the current was stable). The coverslips spread with the cells were placed in a recording chamber under the inverted microscope. The blank control extracellular fluid and the test compound working solution were perfused through the recording chamber via the gravity-driven perfusion method, thereby acting on the cells, and a peristaltic pump was used to facilitate liquid exchange. The current recorded from cells in compound-free extracellular fluid was used as the control group. All electrophysiological experiments were conducted at room temperature. The inhibition rate of compounds on Nav1.8 was determined by calculating the relative percentage of peak currents generated before and after the cells were treated with the compounds.
The voltage stimulation protocol for whole-cell patch clamp recording of Nav1.8 sodium currents was described as follows. When the whole-cell sealing was formed, the cells were clamped at a voltage of −120 mV. First, the voltage was stepped from −110 mV to −30 mV in 10 mV increments and maintained for 5 s, followed by a depolarizing pulse to 0 mV to obtain a half-inactivation voltage (Vhalf). […]

T1 sequence (Q9Y5Y9 whole entry): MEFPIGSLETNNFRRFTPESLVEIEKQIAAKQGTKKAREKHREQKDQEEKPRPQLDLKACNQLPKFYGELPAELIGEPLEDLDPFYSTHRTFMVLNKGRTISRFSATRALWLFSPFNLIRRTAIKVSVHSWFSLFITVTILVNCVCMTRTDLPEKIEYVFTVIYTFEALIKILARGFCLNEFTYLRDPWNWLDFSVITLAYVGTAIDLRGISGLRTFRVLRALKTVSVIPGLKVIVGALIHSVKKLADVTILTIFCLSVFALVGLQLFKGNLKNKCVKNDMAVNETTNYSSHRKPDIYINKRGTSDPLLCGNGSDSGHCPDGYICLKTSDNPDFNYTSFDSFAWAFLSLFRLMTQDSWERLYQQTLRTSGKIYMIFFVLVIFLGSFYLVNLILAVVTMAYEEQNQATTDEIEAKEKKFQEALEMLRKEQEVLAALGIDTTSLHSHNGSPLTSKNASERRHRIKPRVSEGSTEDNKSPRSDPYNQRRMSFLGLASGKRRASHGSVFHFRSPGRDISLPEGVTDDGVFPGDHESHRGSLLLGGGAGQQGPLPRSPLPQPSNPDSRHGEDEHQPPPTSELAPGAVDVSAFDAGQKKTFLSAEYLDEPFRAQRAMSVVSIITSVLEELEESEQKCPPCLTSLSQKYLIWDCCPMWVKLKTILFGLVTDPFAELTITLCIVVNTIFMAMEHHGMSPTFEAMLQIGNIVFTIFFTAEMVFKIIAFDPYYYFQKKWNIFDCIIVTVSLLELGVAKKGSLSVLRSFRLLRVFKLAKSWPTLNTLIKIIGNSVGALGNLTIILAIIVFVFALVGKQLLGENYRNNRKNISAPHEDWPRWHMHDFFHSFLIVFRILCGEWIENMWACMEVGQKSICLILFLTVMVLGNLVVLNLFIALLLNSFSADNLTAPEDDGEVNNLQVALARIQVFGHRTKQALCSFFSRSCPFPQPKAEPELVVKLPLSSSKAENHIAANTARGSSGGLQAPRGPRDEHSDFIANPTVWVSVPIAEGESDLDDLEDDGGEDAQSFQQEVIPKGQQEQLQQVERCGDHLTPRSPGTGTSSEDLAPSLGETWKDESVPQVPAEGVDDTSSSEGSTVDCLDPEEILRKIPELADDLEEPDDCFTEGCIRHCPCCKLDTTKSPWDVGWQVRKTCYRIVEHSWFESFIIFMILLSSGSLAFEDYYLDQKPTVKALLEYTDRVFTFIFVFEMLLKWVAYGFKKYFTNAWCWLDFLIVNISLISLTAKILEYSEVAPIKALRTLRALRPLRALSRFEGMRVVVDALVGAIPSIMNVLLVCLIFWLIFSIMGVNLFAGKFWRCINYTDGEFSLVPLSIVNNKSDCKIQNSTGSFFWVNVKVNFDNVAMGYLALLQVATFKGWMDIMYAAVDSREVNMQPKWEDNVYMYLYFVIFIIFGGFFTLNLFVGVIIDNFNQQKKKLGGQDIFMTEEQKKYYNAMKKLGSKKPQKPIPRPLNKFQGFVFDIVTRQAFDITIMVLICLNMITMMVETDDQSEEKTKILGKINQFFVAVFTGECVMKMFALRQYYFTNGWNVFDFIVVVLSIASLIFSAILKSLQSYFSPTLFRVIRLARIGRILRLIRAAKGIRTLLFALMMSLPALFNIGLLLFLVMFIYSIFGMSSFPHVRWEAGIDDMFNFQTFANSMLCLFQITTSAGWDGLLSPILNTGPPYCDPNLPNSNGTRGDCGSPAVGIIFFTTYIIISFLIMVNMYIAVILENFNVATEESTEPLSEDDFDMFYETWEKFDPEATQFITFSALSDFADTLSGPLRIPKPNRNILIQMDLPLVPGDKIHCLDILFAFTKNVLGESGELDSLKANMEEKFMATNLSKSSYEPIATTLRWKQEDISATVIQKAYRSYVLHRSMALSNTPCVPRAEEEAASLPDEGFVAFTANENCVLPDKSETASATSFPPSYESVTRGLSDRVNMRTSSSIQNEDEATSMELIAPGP

| IC50 | Structure (SMILES) |
| --- | --- |
| < 100 pM | COc1c([C@H]2[C@H](C(=O)Nc3cccc(C(N)=O)c3)S[C@@](C)(C(F)(F)F)[C@H]2C)ccc(F)c1F [Mixture of compounds 28-2a and 28-2b] |
| < 100 pM | COc1c([C@H]2[C@H](C(=O)Nc3ccc(F)c(S(N)(=O)=O)c3)S[C@@](C)(C(F)(F)F)[C@H]2C)ccc(F)c1F [Compound 8-1a] |
| < 1000 pM | COc1c([C@H]2[C@H](C(=O)Nc3ccnc(CO)c3)S[C@@](C)(C(F)(F)F)[C@H]2C)ccc(F)c1F [Compound 50] |
| < 1000 pM | COc1c([C@H]2[C@H](C(=O)Nc3ccnc(P(C)(C)=O)c3)S[C@@](C)(C(F)(F)F)[C@H]2C)ccc(F)c1F [Trifluoroacetate of compound 58] |
| < 100 pM | C[C@H]1[C@@H](c2ccc(F)c3c2CCC3)[C@H](C(=O)Nc2ccc(F)c(S(C)(=N)=O)c2)S[C@@]1(C)C(F)(F)F (stereo partly shown) [Compound 63-b] |
| < 100 pM | COc1c(C2C(C(=O)Nc3ccnc(S(C)(=O)=O)c3)SC(C)(C(F)(F)F)C2C)ccc(F)c1F (stereo not shown) [Mixture of compounds 25-1a and 25-1b] |
| < 100 pM | COc1c(C2C(C(=O)Nc3ccnc(C(N)=O)c3)SC(C)(C(F)(F)F)C2C)ccc(F)c1F (stereo not shown) |
| < 1000 pM | COc1c(C2C(C(=O)Nc3ccc(CO)nc3)SC(C)(C(F)(F)F)C2C)ccc(F)c1F (stereo not shown) [Mixture of compounds 18-2a and 18-2b] |
| < 1000 pM | COc1c(C2C(C(=O)Nc3ccnc(OCC(O)CO)c3)SC(C)(C(F)(F)F)C2C)ccc(F)c1F (mixture of isomers) [Mixture of compounds 33-1a and 33-1b] |
| < 1000 pM | COc1c(C2CC(C)(C(F)(F)F)SC2C(=O)Nc2cccc(C(N)=O)c2)ccc(F)c1F (single isomer, unassigned) [Compound 32-1P2] |
| < 100 pM | [2H]C([2H])([2H])Oc1c([C@H]2[C@H](C(=O)Nc3ccnc(C(N)=O)c3)S[C@@](C)(C(F)(F)F)[C@H]2C)ccc(F)c1F [Mixture of compounds 35-8a and 35-8b] |
| < 100 pM | COc1c(C2C(C(=O)Nc3ccnc(C(N)=O)c3)SC(C)(C(F)(F)F)C2C)ccc(F)c1F (single isomer, unassigned) [Compound 1-2P1] |
| < 10000 pM | COc1c(C2C(C(=O)Nc3ccnc(C(N)=O)c3)SC(C)(C(F)(F)F)C2C)ccc(F)c1F (single isomer, unassigned) [Compound 1-2P2] |
| < 100 pM | COc1c([C@H]2[C@H](C(=O)Nc3cccc(S(C)(=O)=O)c3)S[C@@](C)(C(F)(F)F)[C@H]2C)ccc(F)c1F [Compound 22-1a] |
| < 100 pM | C[C@H]1[C@@H](c2ccc(F)c3c2CCC3)[C@H](C(=O)Nc2ccc(F)c(C(N)=O)c2)S[C@@]1(C)C(F)(F)F [Compound 61-b] |
| < 1000 pM | COc1c([C@H]2[C@H](C(=O)Nc3ccc(F)c(C(=O)O)c3)S[C@@](C)(C(F)(F)F)[C@H]2C)ccc(F)c1F [Compound 55] |
| < 1000 pM | COc1c([C@H]2[C@H](C(=O)Nc3ccc(CO)nc3)S[C@@](C)(C(F)(F)F)[C@H]2C)ccc(F)c1F [Compound 18-2a] |
| < 1000 pM | COc1cc(F)ccc1C1C(C(=O)Nc2ccnc(C(N)=O)c2)SC(C)(C(F)(F)F)C1C (stereo not shown) [Mixture of compounds 34-1a and 34-1b] |
| < 100 pM | COc1c([C@H]2[C@H](C(=O)Nc3cc[nH]c(=O)c3)S[C@@](C)(C(F)(F)F)[C@H]2C)ccc(F)c1F [Compound 36-2a] |
| < 1000 pM | COc1c(C2CC(C)(C(F)(F)F)SC2C(=O)Nc2cccc(C(N)=O)c2)ccc(F)c1F (single isomer, unassigned) [Compound 32-1P1] |
| < 100 pM | COc1c([C@H]2[C@H](C(=O)Nc3ccc(F)c(S(C)(=O)=O)c3)S[C@@](C)(C(F)(F)F)[C@H]2C)ccc(F)c1F [Compound 26-1a] |
| < 1000 pM | COc1c([C@@H]2C[C@](C)(C(F)(F)F)S[C@H]2C(=O)Nc2ccnc(P(C)(C)=O)c2)ccc(F)c1F [Compound 74-a] |

| IC50 | Structure (SMILES) |
| --- | --- |
| < 1000 pM | CC1C(c2ccc(F)c3c2CCC3)C(C(=O)Nc2cccc(C(N)=O)c2)SC1(C)C(F)(F)F (stereo not shown) [Mixture of compounds 37-1a and 37-1b] |
| < 100 pM | COc1c([C@H]2[C@H](C(=O)Nc3ccnc(S(C)(=O)=O)c3)S[C@@](C)(C(F)(F)F)[C@H]2C)ccc(F)c1F [Compound 25-1a] |
| < 1000 pM | COc1c(C2C(C(=O)Nc3ccc(F)c(S(C)(=O)=O)c3)SC(C)(C(F)(F)F)C2C)ccc(F)c1F (stereo not shown) [Mixture of compounds 26-1a and 26-1b] |
| < 1000 pM | COc1c([C@H]2[C@H](C(=O)Nc3cnc(CO)nc3)S[C@@](C)(C(F)(F)F)[C@H]2C)ccc(F)c1F [Compound 19-2a] |
| < 100 pM | COc1c([C@H]2[C@H](C(=O)Nc3ccnc(C(N)=O)c3)S[C@@](C)(C(F)(F)F)[C@H]2C)ccc(F)c1F [Compound 1-2a] |
| < 1000 pM | COc1c(C2C(C(=O)Nc3cnc(CO)nc3)SC(C)(C(F)(F)F)C2C)ccc(F)c1F (stereo not shown) [Mixture of compounds 19-2a and 19-2b] |
| < 1000 pM | C[C@H]1[C@@H](c2ccc(F)c3c2OCC3(C)C)[C@H](C(=O)Nc2ccnc(C(N)=O)c2)S[C@@]1(C)C(F)(F)F [Mixture of compounds 76-8a and 76-8b] |
| < 100 pM | COc1c(C2C(C(=O)Nc3cc[nH]c(=O)c3)SC(C)(C(F)(F)F)C2C)ccc(F)c1F (stereo not shown) [Mixture of compounds 36-2a and 36-2b] |
| < 100 pM | COc1c([C@@H]2C[C@](C)(C(F)(F)F)S[C@H]2C(=O)Nc2ccc(F)c(S(N)(=O)=O)c2)ccc(F)c1F [Compound 72-a] |
| < 100 pM | C[C@H]1[C@@H](c2ccc(F)c3c2CCC3)[C@H](C(=O)Nc2ccc(F)c(S(C)(=O)=O)c2)S[C@@]1(C)C(F)(F)F [Compound 65-b] |
| < 1000 pM | COc1c([C@H]2[C@H](C(=O)Nc3ccc[n+]([O-])c3)S[C@@](C)(C(F)(F)F)[C@H]2C)ccc(F)c1F [Compound 20-1a] |
| < 100 pM | COc1c([C@H]2[C@H](C(=O)Nc3ccnc(S(N)(=O)=O)c3)S[C@@](C)(C(F)(F)F)[C@H]2C)ccc(F)c1F [Compound 5-3a] |
| < 100 pM | COc1c([C@@H]2C[C@](C)(C(F)(F)F)S[C@H]2C(=O)Nc2ccc(F)c(C(N)=O)c2)ccc(F)c1F (single isomer, unassigned) [Compound 70-a] |
| < 1000 pM | COc1c([C@H]2[C@H](C(=O)Nc3cccc(P(C)(C)=O)c3)S[C@@](C)(C(F)(F)F)[C@H]2C)ccc(F)c1F [Compound 57] |
| < 100 pM | C[C@H]1[C@@H](c2ccc(F)c3c2CCC3)[C@H](C(=O)Nc2ccc(F)c(S(N)(=O)=O)c2)S[C@@]1(C)C(F)(F)F [Compound 59-b] |
| < 1000 pM | COc1c(C2C(C(=O)Nc3ccnc(S(N)(=O)=O)c3)SC(C)(C(F)(F)F)C2C)ccc(F)c1F (stereo not shown) [Mixture of compounds 5-3a and 5-3b] |
| < 100 pM | COc1c([C@H]2[C@H](C(=O)Nc3ccc(F)c(S(C)(=N)=O)c3)S[C@@](C)(C(F)(F)F)[C@H]2C)ccc(F)c1F (stereo partly shown) |
| < 1000 pM | COc1c([C@H]2[C@H](C(=O)Nc3ccc(F)c(CO)c3)S[C@@](C)(C(F)(F)F)[C@H]2C)ccc(F)c1F [Compound 48-1a] |
| < 100 pM | COc1c([C@H]2[C@H](C(=O)Nc3cccc(S(N)(=O)=O)c3)S[C@@](C)(C(F)(F)F)[C@H]2C)ccc(F)c1F [Compound 7-1a] |
| < 100 pM | COc1c([C@H]2[C@H](C(=O)Nc3ccc[n+]([O-])c3)S[C@@](C)(C(F)(F)F)[C@H]2C)ccc(F)c1F (racemic) [Mixture of compounds 20-1a and 20-1b] |
| < 1000 pM | C[C@H]1[C@@H](c2ccc(F)c3c2CCC3)[C@H](C(=O)Nc2ccnc(P(C)(C)=O)c2)S[C@@]1(C)C(F)(F)F [Compound 68-b] |
